Data: US12629355B2, “Drug inhibitor against migration and invasion of cancer cells and methods of treating against metastasis of cancer cells” (HOWARD UNIVERSITY, priority 2019, dated 2026)

Molecular target: T1, RACK1A Y248 phosphorylation (Arabidopsis thaliana, UniProt O24456)
T1 construct: from tissue; host or cells: one-week old Arabidopsis seedlings (whole-seedling lysate)
Test: Stress hormone (ABA) induced RACK1A Y248 phosphorylation in Arabidopsis seedlings, western blot (FIG. 1)
Assay type: cell-based
Conditions: 10 uM ABA, 12 hours
From the text: The results of lab experiment establish the compounds identified by in silico screen to prevent RACK1 Y248 phosphorylation can inhibit RACK1 Y248 phosphorylation and confirm their utility in their application in RACK1 mediated cellular pathways. Y248 phosphorylation has previously been identified as a key event needed for RACK1 mediated scaffolding activities by regulating protein-protein interactions in plants. The corresponding residue in human RAKI is also a key requirement for scaffolding activities needed at the receptor level during the invasion and migration of cancer cells. […] The knock-out plant did maintain both the RACK1B protein and the RACK1C protein, but the antibody was raised to detect the RACK1A Y248 phosphorylation only.
As to FIG. 1, since RACK1 is a regulator of plant stress hormone Abscisic acid (ABA) (Guo et al., 2009), one-week old Arabidopsis seedlings were treated with 10 uM of ABA in the presence/absence of the inhibitor compounds for 12 hours in a growth chamber (overnight) at 22 C mostly in the night dark. Lysates isolated in buffer (Cell Signaling, MA) supplemented with plant protease inhibitor (Sigma-Aldrich), Protein Tyrosine phosphatase inhibitors (Santa Cruz Biotechnology, TX), and N-Ethylamaleimide (Sigma-Aldrich) at 25 mM to inhibit de-sumoylation. […]

T1 sequence (O24456 whole entry): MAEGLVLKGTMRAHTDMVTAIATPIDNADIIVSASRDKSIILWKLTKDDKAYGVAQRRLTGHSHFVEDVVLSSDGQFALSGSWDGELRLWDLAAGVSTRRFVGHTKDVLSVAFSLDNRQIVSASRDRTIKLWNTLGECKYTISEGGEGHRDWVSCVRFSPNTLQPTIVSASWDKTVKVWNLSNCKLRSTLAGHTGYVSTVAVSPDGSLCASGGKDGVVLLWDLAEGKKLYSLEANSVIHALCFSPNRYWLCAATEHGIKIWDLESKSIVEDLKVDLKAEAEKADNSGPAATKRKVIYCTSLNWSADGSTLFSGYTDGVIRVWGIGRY

RACK1A Y248 phosphorylation with stress hormone present: prevents Y248 phosphorylation
Compound: Nn1c(S)nnc1-c1ccc(F)cc1 [SD 29, reference compound]
